Measured values published in US9113629B2, “4-amino-6-(4-substituted-phenyl)-picolinates and 6-amino-2-(4-substituted-phenyl)-pyrimidine-4-carboxylates and their use as herbicides” (DOW AGROSCIENCES LLC, priority 2013, dated 2015).
Where two headings read alike, the source gives them in different places.

Columns and labels:
[1] = test system: Key Grass and Sedge Weeds as well as Grass Crops; assay: Post-emergent Test II herbicidal activity (Table 6); type: in vivo; conditions: post-emergence, 336 h; for pest or weed control at 70 g/ha: 70 g ai/ha; for pest or weed control at 140 g/ha: 140 g ai/ha
Procedure, shortened: (§1)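 Percent injury, 0 (none) to 100 (complete kill), was judged visually 14 d after spraying young plants at the first or second true leaf stage with compound in an acetone/DMSO aqueous carrier at 187 L/ha. Plants were kept in a greenhouse at 23–29 °C by day.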

[2] = test system: Key Broadleaf Weed and Crop Species; assay: Post-emergent Test II herbicidal activity (Table 5); type: in vivo; conditions: post-emergence, 336 h, 14 days after application; for pest or weed control at 70 g/ha: application rate 70 g ai/ha; for pest or weed control at 140 g/ha: application rate 140 g ai/ha
Procedure, shortened: as §1

[3] = CYPES: yellow nutsedge (Cyperus esculentus), read-out: Visual Growth Reduction (%) 14 Days After Application, CYPES
[4] = DIGSA: crabgrass (Digitaria sanguinalis), read-out: Visual Growth Reduction (%) 14 Days After Application, DIGSA
[5] = ECHCG: barnyardgrass (Echinochloa crus-galli), read-out: Visual Growth Reduction (%) 14 Days After Application, ECHCG
[6] = ORYSA: rice (Oryza sativa), crop, read-out: Visual Growth Reduction (%) 14 Days After Application, ORYSA
[7] = SETFA: giant foxtail (Setaria faberi), read-out: Visual Growth Reduction (%) 14 Days After Application, SETFA
[8] = SORVU: grain sorghum (Sorghum vulgare), read-out: Visual Growth Reduction (%) 14 Days After Application, SORVU
[9] = TRZSS (wheat, Triticum aestivum), crop, read-out: Visual Growth Reduction (%) 14 Days After Application, TRZSS
[10] = ZEAMX: maize, corn (Zea mays), crop, read-out: Visual Growth Reduction (%) 14 Days After Application, ZEAMX
[11] = ABUTH: velvetleaf (Abutilon theophrasti), read-out: Visual Growth Reduction (%) 14 Days After Application, ABUTH
[12] = AMARE: redroot pigweed (Amaranthus retroflexus), read-out: Visual Growth Reduction (%) 14 Days After Application, AMARE
[13] = BRSNN: oilseed-rape, canola (Brassica napus), read-out: Visual Growth Reduction (%) 14 Days After Application, BRSNN
[14] = CHEAL: lambsquarters (Chenopodium album), read-out: Visual Growth Reduction (%) 14 Days After Application, CHEAL
[15] = EPHHL: wild poinsettia (Euphorbia heterophylla), read-out: Visual Growth Reduction (%) 14 Days After Application, EPHHL
[16] = HELAN: sunflower (Helianthus annuus), read-out: Visual Growth Reduction (%) 14 Days After Application, HELAN
[17] = VIOTR: wild pansy (Viola tricolor), read-out: Visual Growth Reduction (%) 14 Days After Application, VIOTR

Compound	pest or weed control at 70 g/ha [1, 3]	pest or weed control at 140 g/ha [1, 3]	pest or weed control at 70 g/ha [1, 4]	pest or weed control at 140 g/ha [1, 4]	pest or weed control at 70 g/ha [1, 5]	pest or weed control at 140 g/ha [1, 5]	pest or weed control at 70 g/ha [1, 6]	pest or weed control at 140 g/ha [1, 6]	pest or weed control at 70 g/ha [1, 7]	pest or weed control at 140 g/ha [1, 7]	pest or weed control at 70 g/ha [1, 8]	pest or weed control at 140 g/ha [1, 8]	pest or weed control at 70 g/ha [1, 9]	pest or weed control at 140 g/ha [1, 9]	pest or weed control at 70 g/ha [1, 10]	pest or weed control at 140 g/ha [1, 10]	pest or weed control at 70 g/ha [2, 11]	pest or weed control at 140 g/ha [2, 11]	pest or weed control at 70 g/ha [2, 12]	pest or weed control at 140 g/ha [2, 12]	other results
COC(=O)c1nc(-c2ccccc2)nc(N)c1OC [Compound 175]	0 to 29%	0 to 29%	0 to 29%	0 to 29%	0 to 29%	0 to 29%	0 to 29%	0 to 29%	0 to 29%	0 to 29%	0 to 29%	0 to 29%	0 to 29%	0 to 29%	0 to 29%	0 to 29%	45 to 59%	45 to 59%	45 to 59%	95 to 100%	pest or weed control at 70 g/ha [2, 13]: 0 to 29%; pest or weed control at 140 g/ha [2, 13]: 0 to 29%; pest or weed control at 70 g/ha [2, 14]: 0 to 29%; pest or weed control at 140 g/ha [2, 14]: 30 to 44%; pest or weed control at 70 g/ha [2, 15]: 85 to 94%; pest or weed control at 140 g/ha [2, 15]: 85 to 94%; pest or weed control at 70 g/ha [2, 16]: 45 to 59%; pest or weed control at 140 g/ha [2, 16]: 60 to 74%; pest or weed control at 70 g/ha [2, 17]: 0 to 29%; pest or weed control at 140 g/ha [2, 17]: 0 to 29%; melting point: 123 to 124 °C
COC(=O)c1nc(-c2ccc(OC(F)F)cc2)nc(N)c1OC [Compound 106, methyl 6-amino-2-(4-(difluoromethoxy)phenyl)-5-methoxypyrimidine-4-carboxylate]	0 to 29%	0 to 29%	0 to 29%	0 to 29%	0 to 29%	0 to 29%	0 to 29%	0 to 29%	0 to 29%	0 to 29%	0 to 29%	0 to 29%	0 to 29%	0 to 29%	0 to 29%	0 to 29%	0 to 29%	0 to 29%	0 to 29%	0 to 29%	pest or weed control at 70 g/ha [2, 13]: 0 to 29%; pest or weed control at 140 g/ha [2, 13]: 0 to 29%; pest or weed control at 70 g/ha [2, 14]: 0 to 29%; pest or weed control at 140 g/ha [2, 14]: 0 to 29%; pest or weed control at 70 g/ha [2, 15]: 0 to 29%; pest or weed control at 140 g/ha [2, 15]: 0 to 29%; pest or weed control at 70 g/ha [2, 16]: 0 to 29%; pest or weed control at 140 g/ha [2, 16]: 0 to 29%; pest or weed control at 70 g/ha [2, 17]: 0 to 29%; pest or weed control at 140 g/ha [2, 17]: 0 to 29%; melting point: 183 to 184 °C
